According to patent US20090130707A1, “Methods of reducing the inhibitory effect of a redox active metal ion on the enzymatic hydrolysis of cellulosic material” (priority 2007, published 2009):

How the values were obtained:
[1] = target: Cellulolytic Enzyme Composition #1; test: mini-plate-scale PASC hydrolysis by Cellulolytic Enzyme Composition #1; assay type: biochemical, Trichoderma reesei
Description: (§1) Various (biologically common) divalent metal cations with variable ionic radii were tested in 2.8 ml Deep Well Microplates (VWR International, West Chester, Pa., USA) (“mini-plate-scale”) containing 1 ml suspensions of 25 g of AVICEL® per liter in 50 mM sodium acetate pH 5 at 50° C. Cellulolytic Enzyme Composition #1 was added at 0.25 g per liter for each hydrolysis. The mini-plates were sealed at 160° C. for 2 seconds using an ABGENE® ALPS 300™ sealer (ABgene, Rochester, N.Y., USA). The sealed mini-plates were incubated at 50° C. in an INNOVA® 4080 incubator shaker at 150 rpm. Soluble reducing sugars were measured by HPLC as described in Example 30.
In one series of “mini-scale” hydrolysis reactions performed according to the procedure described in Example 30, the effect of 1 mM to 10 mM FeSO4 was evaluated in the hydrolysis of AVICEL® by Cellulolytic Enzyme Composition #1. In a series of “mini-plate-scale” hydrolysis reactions performed according to the procedure described in Example 32, the effect of 1 mM to 10 mM FeSO4 was evaluated in the hydrolysis of PASC by Cellulolytic Enzyme Composition #1, except 2 g of PASC and 0.05 g Cellulolytic Enzyme Composition #1 per liter of 50 mM sodium acetate pH 5 were used.
The above study was extended to a range of concentration of Fe(II) and cellulose. In a series of “mini-plate-scale” hydrolysis reactions performed according to the procedure described in Example 32, except that 0.1 to 10 mM FeSO4, 0.6 to 4 g of PASC and 0.01 g of Cellulolytic Enzyme Composition #1 per liter of 50 mM sodium acetate pH 5 were used.

[2] = target: T1, Trichoderma reesei Cel7B endoglucanase I (Trichoderma reesei, UniProt P07981); test: PASC hydrolysis by Cel7B endoglucanase I; assay type: biochemical
T1 construct: made in house; host or cells: Aspergillus oryzae JaL250

[3] = target: T2, Trichoderma reesei Cel7A cellobiohydrolase I (Trichoderma reesei, UniProt P62694); test: PASC hydrolysis by Cel7A cellobiohydrolase I; assay type: biochemical
T2 construct: made in house

[4] = target: T3, Aspergillus oryzae CEL3A beta-glucosidase (Aspergillus oryzae, UniProt Q2UUD6); test: Cellobiose hydrolysis by CEL3A beta-glucosidase; assay type: biochemical
T3 construct: made in house
Description: The Fe(II) inhibition of Aspergillus oryzae CEL3A beta-glucosidase was measured similarly, except cellobiose replaced PASC. The initial rate vs Fe(II) concentration plots appeared as “mixed” type, whose complexity prevented extraction of Kis.

[5] = cited from earlier work
[6] = tested on: Cellulolytic Enzyme Composition #1; test: mini-plate-scale AVICEL hydrolysis by Cellulolytic Enzyme Composition #1; assay type: biochemical, Trichoderma reesei; settings: for Effect on enzymatic cellulolysis: loss in initial rate / Effect on enzymatic cellulolysis: loss in extended hydrolysis extent: 10 mM, 25 g AVICEL and 0.25 g enzyme per liter, pH 5, 50° C.; for Effect on enzymatic cellulolysis: loss in extended hydrolysis extent: after 4 days
Description: as §1
Iron-chelator complexes of variable size or redox property were tested for their ability to inhibit enzymatic hydrolysis of cellulose. […]

[7] = target: T4, Trichoderma reesei Cel5A endoglucanase II (Trichoderma reesei, UniProt P07982); test: PASC hydrolysis by Cel5A endoglucanase II; assay type: biochemical
T4 construct: made in house; host or cells: Aspergillus oryzae JaL250 (transformant JaL250AlLo27)

[8] = tested on: Cellulolytic Enzyme Composition #2; test: mini-scale PCS hydrolysis by Cellulolytic Enzyme Composition #2; assay type: biochemical, Trichoderma reesei
Description: Corn stover was pretreated at the U.S. Department of Energy National Renewable Energy Laboratory (NREL), […], Colo., USA, using dilute sulfuric acid. The following conditions were used for the pretreatment: 1.4 wt % sulfuric acid at 195° C. for 4.5 minutes. According to limit digestion with excess cellulase enzymes, the water-insoluble solids in the pretreated corn stover (PCS) contained 59.5% cellulose. Prior to use, the PCS was washed with a large volume of deionized water until soluble acid and sugars were removed. The dry weight of the water-washed PCS was 19.16%.
The effect of various salts (FeSO4, FeCl2, NaCl, Na2SO4, MnSO4, MnCl2) was determined in the hydrolysis of PCS by Cellulolytic Enzyme Composition #2. […] Cellulolytic Enzyme Composition #2 was added at 0.25 g per liter. Reactions without the addition of the salt served as controls. The capped tubes were incubated at 50° C. in an INNOVA® 4080 incubator shaker (New Brunswick Scientific Co., Inc., Edison, N.J., USA) at 150 rpm.
(§2) Aliquots of the suspensions, sampled over time, were filtered by centrifugation using a 0.45 μm MULTISCREEN® HV membrane (Millipore, Billerica, Mass., USA) at 2000 rpm for 15 minutes using a SORVALL® RT7 centrifuge (Thermo Fisher Scientific, Waltham, Mass., USA). When not used immediately, the filtered sugary aliquots were frozen at −20° C. Sugar concentrations of the samples diluted in 0.005 M H2SO4 were measured after elution from a 4.6×250 mm AMINEX® HPX-87H column (Bio-Rad, Hercules, Calif., USA) by 0.005 M H2SO4 at a flow rate of 0.4 ml/minute at 65° C. with quantitation by integration of glucose and cellobiose using refractive index detection (CHEMSTATION®, AGILENT® 1100 HPLC, Agilent Technologies, Santa Clara, Calif., USA) calibrated with standards of glucose and cellobiose. The resultant equivalents were used to calculate the percentage of cellulose conversion for each reaction.
The degree of cellulose conversion to glucose plus cellobiose (% conversion) was calculated using the following equation:
% Conversion=(glucose+cellobiose×1.053)(mg/ml)×100×162/cellulose(mg/ml)×180)=(glucose+cellobiose×1.053)(mg/ml)×100/(cellulose(mg/ml)×1.111)
In this equation the factor 1.111 reflects the weight gain in converting cellulose to glucose, and the factor 1.053 reflects the weight gain in converting cellobiose to glucose. Cellulose in PCS was determined by a limit digest of PCS to release glucose and cellobiose.

[9] = tested on: Cellulolytic Enzyme Composition #2; test: mini-plate-scale PCS hydrolysis by Cellulolytic Enzyme Composition #2 with H2O2 and ferric ion chelator; assay type: biochemical, Trichoderma reesei; settings: for Effect on the inhibition by ferrous ion: 2.5 mM FeSO4, 10 mM H2O2 for 30 minutes, 10 mM desferrioxamine
Description: However, prior to the addition of Cellulolytic Enzyme Composition #2, the mixture of PCS and FeSO4 was treated with 10 mM H2O2 for 30 minutes. In some cases, 10 mM desferrioxamine was also added. Reactions without the addition of FeSO4 or H2O2 served as controls.

[10] = tested on: Cellulolytic Enzyme Composition #1; test: mini-scale PCS hydrolysis by Cellulolytic Enzyme Composition #1; assay type: biochemical, Trichoderma reesei; settings: for cellobiose level in the hydrolysis products versus absence of the compounds: PCS hydrolysis; for Effect of chelator on enzyme in the absence of FeSO4: PCS hydrolysis (FIGS. 23A-23D)
Description: The effect of various salts (FeSO4, FeCl2, NaCl, Na2SO4, MnSO4, MnCl2) was determined in the hydrolysis of PCS by Cellulolytic Enzyme Composition #2. The PCS hydrolysis was performed in duplicate in capped 1.7 ml EPPENDORF® tubes (“mini-scale”) containing 1 ml suspensions of 43.4 g of PCS (dry weight) per liter, 10 mM salts in 50 mM sodium acetate pH 5. Cellulolytic Enzyme Composition #2 was added at 0.25 g per liter. Reactions without the addition of the salt served as controls. The capped tubes were incubated at 50° C. in an INNOVA® 4080 incubator shaker (New Brunswick Scientific Co., Inc., Edison, N.J., USA) at 150 rpm.
as §2
Example 30 was repeated with both Cellulolytic Enzyme Composition #1 and Cellulolytic Enzyme Composition #2. Soluble reducing sugars were measured by HPLC as described in Example 30. Reactions without the addition of FeSO4 served as controls.
The hydrolysis was performed in a series of duplicate “mini-scale” hydrolysis reactions according to the procedure described in Example 30.

[11] = tested on: Cellulolytic Enzyme Composition #1; test: Pre-incubation of iron ion with PASC or enzyme, then PASC hydrolysis; assay type: biochemical, Trichoderma reesei
Description: The “pre-incubation” study was also performed for the hydrolysis of PASC. The experiments were similar to those described above, except 2 g of PASC, replacing AVICEL®, and 0.01 g of Cellulolytic Enzyme Composition #1 per liter of 50 mM sodium acetate pH 5, and 3 days pre-incubation were used. All hydrolyses were performed using the “mini-plate-scale” hydrolysis reaction according to the procedure described in Example 32, except for the change in cellulose or cellulase described above.

[12] = tested on: Cellulolytic Enzyme Composition #1; test: Pre-incubation of iron ion with AVICEL or enzyme, then AVICEL hydrolysis; assay type: biochemical, Trichoderma reesei
Description: To test whether Fe(II) affects cellulose or cellulase, 10 mM FeCl2 was pre-incubated with either 25 g of AVICEL® or 0.25 g of Cellulolytic Enzyme Composition #1 per liter of 50 mM sodium acetate pH 5 for three days. “Fe-pretreated” AVICEL® was washed and Cellulolytic Enzyme Composition #1 was gel-filtered using BioSpin 6 desalting columns (Bio-Rad, Hercules, Calif., USA) to remove residual Fe ion. Fe-pretreated AVICEL® was hydrolyzed with fresh Cellulolytic Enzyme Composition #1 or Cellulolytic Enzyme Composition #1 subjected to “FeCl2-less” pre-incubation and gel filtration. Fe-pretreated Cellulolytic Enzyme Composition #1 was applied to hydrolyze fresh AVICEL® or AVICEL® subjected to “FeCl2-less” pre-incubation and washing, in comparison with the hydrolysis of fresh AVICEL® ([…]) by fresh Cellulolytic Enzyme Composition #1 ([…]), with or without 10 mM FeCl2. All hydrolyses were performed using the “mini-plate-scale” hydrolysis reaction procedure described in Example 32, except for the change in cellulose or cellulase described above.
To test whether Fe(III) affected cellulose or cellulase, 10 mM FeCl3 was pre-incubated with either 25 g of AVICEL® or 0.25 g of Cellulolytic Enzyme Composition #1 per liter of 50 mM sodium acetate pH 5 for three days. All hydrolyses were performed using the “mini-plate-scale” hydrolysis reactions according to the procedure described in Example 32, except for the change in cellulose or cellulase described above.

[13] = 0-15 mM FeSO4, 0.6-4 g PASC per liter
[14] = 10 mM, 2 g PASC and 0.01 g enzyme per liter
[15] = fresh salt, PASC, enzyme fresh or buffer pre-incubated
[16] = pre-incubated 3 days with Cellulolytic Enzyme Composition #1
[17] = 10 mM fresh salt, fresh AVICEL, fresh enzyme
[18] = 10 mM, pre-incubated three days with AVICEL
[19] = 10 mM, pre-incubated three days with Cellulolytic Enzyme Composition #1

T2 sequence (P62694 18-513): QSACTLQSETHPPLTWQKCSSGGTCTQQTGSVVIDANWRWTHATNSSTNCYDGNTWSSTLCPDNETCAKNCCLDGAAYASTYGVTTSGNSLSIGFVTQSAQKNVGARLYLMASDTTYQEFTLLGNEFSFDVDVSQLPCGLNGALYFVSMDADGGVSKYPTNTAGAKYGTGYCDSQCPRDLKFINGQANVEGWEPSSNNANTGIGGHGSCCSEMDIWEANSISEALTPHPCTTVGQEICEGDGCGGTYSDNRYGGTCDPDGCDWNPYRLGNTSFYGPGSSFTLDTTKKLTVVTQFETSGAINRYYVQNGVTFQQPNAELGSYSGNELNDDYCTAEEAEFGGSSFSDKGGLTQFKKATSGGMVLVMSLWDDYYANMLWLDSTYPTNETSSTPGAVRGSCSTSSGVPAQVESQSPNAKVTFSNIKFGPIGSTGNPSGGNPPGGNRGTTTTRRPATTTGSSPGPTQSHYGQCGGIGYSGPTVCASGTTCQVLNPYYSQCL
T3 sequence (Q2UUD6 20-861): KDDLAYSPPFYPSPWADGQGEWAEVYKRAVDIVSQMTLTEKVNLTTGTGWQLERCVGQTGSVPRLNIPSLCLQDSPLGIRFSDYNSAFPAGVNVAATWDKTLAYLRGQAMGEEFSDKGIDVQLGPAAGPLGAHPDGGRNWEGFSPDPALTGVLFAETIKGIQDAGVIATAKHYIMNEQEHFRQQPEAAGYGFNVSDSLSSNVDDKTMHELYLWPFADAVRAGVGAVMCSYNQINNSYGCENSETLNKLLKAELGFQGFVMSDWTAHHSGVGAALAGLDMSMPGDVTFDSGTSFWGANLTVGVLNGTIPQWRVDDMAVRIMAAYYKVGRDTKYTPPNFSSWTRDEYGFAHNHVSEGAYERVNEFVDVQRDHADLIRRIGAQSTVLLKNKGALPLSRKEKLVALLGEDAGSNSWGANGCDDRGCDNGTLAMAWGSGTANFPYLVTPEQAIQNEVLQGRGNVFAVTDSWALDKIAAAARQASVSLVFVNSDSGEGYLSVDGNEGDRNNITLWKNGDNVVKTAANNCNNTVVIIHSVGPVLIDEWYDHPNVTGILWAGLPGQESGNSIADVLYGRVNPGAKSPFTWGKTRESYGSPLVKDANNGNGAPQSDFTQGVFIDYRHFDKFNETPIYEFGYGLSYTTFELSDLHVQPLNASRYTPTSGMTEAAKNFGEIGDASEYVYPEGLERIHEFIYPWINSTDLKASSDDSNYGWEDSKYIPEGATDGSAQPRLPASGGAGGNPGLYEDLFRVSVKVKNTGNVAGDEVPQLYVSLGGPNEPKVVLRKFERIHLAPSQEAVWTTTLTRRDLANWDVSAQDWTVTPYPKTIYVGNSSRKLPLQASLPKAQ
T4 sequence (P07982 22-418): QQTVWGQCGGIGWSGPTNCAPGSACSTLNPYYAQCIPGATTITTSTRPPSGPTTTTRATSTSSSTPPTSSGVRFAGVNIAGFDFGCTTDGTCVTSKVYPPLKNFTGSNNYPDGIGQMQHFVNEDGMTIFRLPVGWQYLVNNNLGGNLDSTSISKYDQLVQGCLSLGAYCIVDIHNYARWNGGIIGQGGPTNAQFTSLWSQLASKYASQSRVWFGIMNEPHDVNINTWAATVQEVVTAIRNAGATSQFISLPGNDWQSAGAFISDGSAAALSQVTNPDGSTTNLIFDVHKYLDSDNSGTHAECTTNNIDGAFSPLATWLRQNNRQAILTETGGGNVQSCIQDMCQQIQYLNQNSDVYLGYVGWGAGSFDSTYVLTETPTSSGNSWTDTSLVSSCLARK
T1 sequence (P07981 23-459): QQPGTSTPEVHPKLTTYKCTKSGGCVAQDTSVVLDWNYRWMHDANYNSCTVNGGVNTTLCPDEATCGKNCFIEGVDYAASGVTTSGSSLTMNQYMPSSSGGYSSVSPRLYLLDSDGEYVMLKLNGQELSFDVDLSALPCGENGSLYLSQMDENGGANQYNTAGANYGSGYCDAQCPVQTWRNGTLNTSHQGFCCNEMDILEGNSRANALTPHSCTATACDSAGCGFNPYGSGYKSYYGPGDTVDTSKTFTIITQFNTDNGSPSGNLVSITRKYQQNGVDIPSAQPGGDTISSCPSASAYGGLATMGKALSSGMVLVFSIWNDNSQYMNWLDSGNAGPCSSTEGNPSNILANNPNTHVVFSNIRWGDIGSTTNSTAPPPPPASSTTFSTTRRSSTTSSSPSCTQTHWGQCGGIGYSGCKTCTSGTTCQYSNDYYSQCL

Compound: [Fe+2] [Fe(II)]
- IC50 ([1]; PASC, Enzymes: Cellulolytic Enzyme Composition #1, read-out: I50 (mean ± SD)): 14 ± 1 mM
- Type of initial rate vs Fe(II) concentration plots [2, 13]: mixed
- IC50 ([2]; PASC, CEL7B EGI, 40 mg enzyme per liter, read-out: I50 (mean ± SD)): 1.8 ± 0.2 mM
- Type of initial rate vs Fe(II) concentration plots [3, 13]: mixed
- IC50 ([3]; PASC, CEL7A CBHI, 40 mg enzyme per liter, read-out: I50 (mean ± SD)): 7 ± 2 mM
- Type of initial rate vs Fe(II) concentration plots ([4]; 0-15 mM FeSO4, cellobiose replaced PASC): mixed
- IC50 ([4]; CEL3A BG, on cellobiose hydrolysis, read-out: I50 (mean ± SD)): 13 ± 2 mM
- Radius ([5]; ionic radii in crystals, 6-ligand coordination): 0.61 Å
- Effect on enzymatic cellulolysis: loss in initial rate [6]: ~70% loss in initial rate, ~70% loss in extended hydrolysis extent
- Effect on enzymatic cellulolysis: loss in extended hydrolysis extent [6]: ~70% loss in initial rate, ~70% loss in extended hydrolysis extent
- IC50 ([6]; Avicel, Enzymes: Cellulolytic Enzyme Composition #1, read-out: I50 (mean ± SD)): 2 ± 1 mM
- Type of initial rate vs Fe(II) concentration plots [7, 13]: mixed
- IC50 ([7]; PASC, CEL5A EGII, 40 mg enzyme per liter, read-out: I50 (mean ± SD)): 12 ± 4 mM
- activity loss ([8]; 10 mM Fe(II) (FIG. 17B)): approximately 70%

Compound: O=C([O-])CC(O)(CC(=O)[O-])C(=O)[O-].[Fe+3] [Fe(III)-citrate, Fe-citrate]
- Effect on hydrolysis of PCS ([9]; 1 and 10 mM): did not affect
- E° ([5]; single-electron oxidation potential of iron-chelator complexes): −0.191^2 V
- Effect on enzymatic cellulolysis: loss in initial rate [6]: No significant change
- Effect on enzymatic cellulolysis: loss in extended hydrolysis extent [6]: no change

Compound: c1cnc2c(c1)ccc1cccnc12 [1,10-phenanthroline]
- cellobiose level in the hydrolysis products versus absence of the compounds [10]: about twice
- Effect of chelator on enzyme in the absence of FeSO4 [10]: significant inhibition

Compound: OO [H2O2, Hydrogen peroxide]
- Effect on the inhibition by ferrous ion [9]: reduced the inhibitory effect
- Effect on hydrolysis in the absence of Fe(II) ([9]; 10 mM H2O2 with or without 10 mM desferrioxamine (FIG. 22B)): only affected the hydrolysis slightly

Compound: CC(=O)N(O)CCCCCNC(=O)CCC(=O)N(O)CCCCCNC(=O)CCC(=O)N(O)CCCCCN [desferrioxamine]
- Effect on the inhibition by ferrous ion [9]: mitigated almost all
- increase in hydrolysis extent ([9]; 10 mM, alone): approximately 2%

Compound: [Cl][Fe][Cl] [FeCl2, ferrous chloride]
- loss of extent of hydrolysis after 4 days [1, 14]: ~30%
- loss of initial hydrolysis rate [1, 14]: ~30%
- loss in extent of hydrolysis [11, 15]: no loss
- loss in initial rate [11, 15]: approximately 30%
- loss in extent of hydrolysis [11, 16]: no loss
- loss in initial rate [11, 16]: ~70%
- loss in extent of hydrolysis ([11]; pre-incubated 3 days with PASC): no loss
- loss in initial rate ([11]; pre-incubated 3 days with PASC): ~60%
- Effect on PCS hydrolysis ([8]; 10 mM salt, 43.4 g PCS and 0.25 g enzyme per liter, 50 mM sodium acetate pH 5, 50° C.): significant inhibition
- loss in extent of hydrolysis [12, 17]: ~50%
- loss in initial rate [12, 17]: ~50%
- loss in extent of hydrolysis [12, 18]: ~10%
- loss in initial rate [12, 18]: ~10%
- loss in extent of hydrolysis [12, 19]: ~20%
- loss in initial rate [12, 19]: ~20%

Compound: c1cnc2c(c1)ccc1ncccc12 [1,7-Phenanthroline]
- cellobiose level in the hydrolysis products versus absence of the compounds [10]: about twice
- Effect of chelator on enzyme in the absence of FeSO4 [10]: essentially benign
